The numbers were not newly measured in patent US11427609B2, “Glycosidic derivatives of treprostinil” (AOP ORPHAN IP AG, priority 2017, dated 2022), which cites them from elsewhere.

`CCCCC[C@H](O)CC[C@@H]1[C@H]2Cc3cccc(OCC(=O)O)c3C[C@H]2C[C@H]1O` [Treprostinil]: the bioavailability (in general, the share of a dose that reaches the circulation, judged against a reference dose that is usually intravenous) (Remodulin, subcutaneous or intravenous infusion) is about 100%. The biological half-life (human organism) is given as 4.4-4.6 hours. For the setting “in vivo”, the excretion in feces is 13%, the “urinary excretion as identified metabolites” value was 64% and the “urinary excretion as unmetabolized treprostinil” value is listed as 4%. In addition, the urinary excretion (total) was 79%.
